Data published in US6852686B2, “Methods for ameliorating icthyosiform skin diseases” (The United States of America as represented by the …, priority 1999, dated 2005).

Assays:
TGase 1 [1] = biological target: T1, TGase 1 (Homo sapiens, UniProt P22735); assay: Lipid Z esterification of involucrin by TGase 1 on SLV; assay type: biochemical
T1 construct: Recombinant full-length human TGase 1 and TGase 3 enzymes were expressed in Sf9 cells by the BaculoGold system; made in house; host or cells: Sf9 insect cells, BaculoGold baculovirus system, pVL1392 vector
T1 sequence (P22735 1-817): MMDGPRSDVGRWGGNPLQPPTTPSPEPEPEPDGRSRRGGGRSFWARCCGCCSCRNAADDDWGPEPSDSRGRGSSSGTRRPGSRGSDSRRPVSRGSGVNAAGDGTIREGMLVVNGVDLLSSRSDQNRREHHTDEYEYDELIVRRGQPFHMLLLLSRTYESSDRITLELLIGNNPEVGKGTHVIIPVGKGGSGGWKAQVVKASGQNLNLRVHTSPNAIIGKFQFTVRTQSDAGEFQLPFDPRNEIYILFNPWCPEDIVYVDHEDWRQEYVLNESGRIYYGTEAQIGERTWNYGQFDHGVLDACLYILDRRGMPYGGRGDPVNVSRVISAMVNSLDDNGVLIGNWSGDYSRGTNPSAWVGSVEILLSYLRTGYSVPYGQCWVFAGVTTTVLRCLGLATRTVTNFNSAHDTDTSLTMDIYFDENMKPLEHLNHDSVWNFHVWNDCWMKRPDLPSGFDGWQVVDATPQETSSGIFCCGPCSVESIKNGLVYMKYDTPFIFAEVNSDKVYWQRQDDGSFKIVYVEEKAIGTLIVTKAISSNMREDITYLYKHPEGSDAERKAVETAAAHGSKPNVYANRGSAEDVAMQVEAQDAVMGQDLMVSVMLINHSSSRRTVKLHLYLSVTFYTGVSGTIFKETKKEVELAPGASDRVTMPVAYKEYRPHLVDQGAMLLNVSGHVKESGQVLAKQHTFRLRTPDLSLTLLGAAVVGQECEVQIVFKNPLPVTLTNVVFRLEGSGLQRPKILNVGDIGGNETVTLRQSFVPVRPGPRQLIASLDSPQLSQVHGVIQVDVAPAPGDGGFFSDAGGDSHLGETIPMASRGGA

TGase 1 [2] = biological target: T1, TGase 1; assay: as above; assay type: biochemical; remark: listed apart in the source
Experimental: A mixture of 54 mol % dimyristoyl-phosphatidylcholine, 15 mol % dipalmitoyl-phosphatidylserine, 30 mol % cholesterol (all from Sigma, St. Louis, Mo.) and 1 mol % lipid Z was made in chloroform: methanol (9:1). This solution was dried down, taken up in aqueous buffer and dispersed by sonication as before (Nemes et al., J. Biol. Chem., 274: in press (1999)). The SLV suspension was equipped with TGase 1 enzyme by incubation at 37° C. for 15 min prior to adding substrates.
The reactions were stopped by the addition of EDTA to 10 mM.
Following reaction, 0.1 ml 20% SDS in water was added to the samples and the mixture was vortexed. This mixture was precipitated and washed three times with acetone-triethylamine-acetic acid (90:5:5) to remove the SDS and the unbound lipids (Konigsberg, W. H. and L. Henderson, Meth. Enzymol., 91: 254-259 (1983), herein expressly incorporated by reference in its entirety). After further washing with acetone the pellet was dried under vacuum and redissolved in 50 mM Tris-HCl (pH 7.5). Resolubilized protein was digested for 16 h with 2 mol % modified trypsin (Boehringer Mannheim). Peptides were resolved on a 250×2 mm PrimesphereC4 HPLC column (Phenomenex) and separated using a gradient elution from 75% buffer A (0.1% TFA in water) to 75% buffer B (50% 2-propanol in acetonitrile) in 40 min. Under these conditions, lipo-peptides were retarded but free peptides elute with the solvent front (Marekov, L. N. and P. M. Steinert, J. Biol. Chem., 273: 17763-17770 (1998), herein expressly incorporated by reference in its entirety).
Amino acid analysis of hydrolyzed samples (5.7 N HCl at 110° C. for 24 h in vacuo) was used to routinely measure amounts of lipo-peptides. Aliquots of isolated lipo-peptide peaks were attached to a solid support for sequencing (Marekov, L. N. and P. M. Steinert, J. Biol. Chem., 273: 17763-17770 (1998), herein expressly incorporated by reference in its entirety). Saponification of lipo-peptides was done with 1 N KOH in 80% methanol for 2 h at 37° C., after which the solution was acidified, dried and peptides were recovered by HPLC on a C18 column.

[3] = 0.3 nmol involucrin/μmol lipid, 4 h reaction

## CCCCCCCCCCCCC/C=C/[C@@H](O)[C@H](CO)NC(=O)CCCCCCCCCCCCCCCOCCCCCCCCCCCCCCCCO [lipid Z, N-[16-(16-hydroxyhexadecyl)oxypalmitoyl]-sphingosine]
TGase 1 [1]
  amount incorporated into SLV without interference with SLV stability or binding of involucrin and TGase 1: ≤ 25 mol %
TGase 1 [1]; rate linear up to 25 mol % lipid Z in SLV
  KM of lipid Z incorporation into involucrin: > 100 mol %
TGase 1 [2]; [3]
  maximum lipid ester formation for Gln 496: < 0.05 mol/mol
  maximum lipid ester formation per mole of Gln residues 107, 118, 122, and 133: 0.1 to 0.3 mol/mol
TGase 1 [2]; SLV formulations with 1 mol % lipid Z
  incorporation rate into involucrin: 2.2±0.3 fmol of lipid Z/s
TGase 1 [2]; ceramide incorporated in SLV
  involucrin-lipid adduct formation by TGase 1 on SLV membranes: formed saponifiable protein-lipid adducts
